Assay results: patent US12534457B2, “Heteroaryl derivative compounds, and uses thereof” (Voronoi Inc., priority 2021, dated 2026)
Blank lines part the entries; values can stand above or below the molecule they belong to.

Columns and labels:
[1] = test system: Ba/F3 cells expressing EGFR Del19/C797S (EGFR DC); experiment: Proliferation inhibitory activity, Ba/F3 cells expressing EGFR Del19/C797S (CellTiter-Glo); type: cell-based; conditions: Mus musculus, BaF3, 72 hours of compound treatment
How it was run: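 Viability after 72 h of compound exposure was measured by luminescence (CellTiter-Glo) in Ba/F3 lines transduced with mutant EGFR. Final concentrations spanned 0.2 nM–5 μM over 12 threefold steps. Growth relative to untreated control gave GI50 values; each test was run three times.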

[2] = test system: Ba/F3 G719A (EGFR mutation); experiment: Proliferation inhibitory activity, Ba/F3 cells expressing EGFR G719A; type: cell-based; conditions: Mus musculus, BaF3, 72 hours, CellTiter-Glo
Protocol: (§1) The following experiments were performed to evaluate the inhibitory activity of the compounds according to the present disclosure on Ba/F3 proliferation expressing EGFR C797S, L861Q, G719A, S768I, L718Q, and/or G724S mutations.
(§2) For Ba/F3 cells, RPMI-1640 containing 10% FBS and 5 ng/ml IL-3 (R&D Systems) was used. Transduced Ba/F3 cells were cultured after adding 1 μg/ml puromycin (Invitrogen) to the same medium.
(§3) At 24 hours before treatment with the compounds, 3000 to 5000 cells were aliquoted into each well of a white clear bottom 96 well plate (Corning). The compounds were diluted in dimethyl sulfoxide (3 times dilution, 12 concentrations in total), and injected in an amount of 1 μl so that the final concentration was 0.2 nM to 5 uM. For measurement of living cells, after 72 hours of compound treatment, the cells were stored at room temperature for 10 min using CellTiter-Glo luminescentcell-viability reagent (Promega), and then luminescence intensity was measured using a reader (SynergyNeo, Biotek). Each test was repeated three times. Result values were calculated as the cell growth rate (%) compared to the control. The graphs were created using GraphPad Prism version 8.3.0 program and the GI50 values were calculated.

[3] = test system: Ba/F3 L861Q (EGFR mutation); experiment: Proliferation inhibitory activity, Ba/F3 cells expressing EGFR L861Q; type: cell-based; conditions: Mus musculus, BaF3, 72 hours, CellTiter-Glo
Protocol: as §1, §2, §3

[4] = test system: Ba/F3 S768I (EGFR mutation); experiment: Proliferation inhibitory activity, Ba/F3 cells expressing EGFR S768I; type: cell-based; conditions: Mus musculus, BaF3, 72 hours, CellTiter-Glo
Protocol: as §1, §2, §3

[5] = test system: Ba/F3 L718Q (EGFR mutation); experiment: Proliferation inhibitory activity, Ba/F3 cells expressing EGFR L718Q; type: cell-based; conditions: Mus musculus, BaF3, 72 hours, CellTiter-Glo
Protocol: as §1, §2, §3

[6] = test system: Ba/F3 G724S (EGFR mutation); experiment: Proliferation inhibitory activity, Ba/F3 cells expressing EGFR G724S; type: cell-based; conditions: Mus musculus, BaF3, 72 hours, CellTiter-Glo
Protocol: as §1, §2, §3

[7] = biological target: T1, EGFR (d746-750) (Homo sapiens, UniProt P00533, DEL746-750); experiment: EGFR-family mutant enzyme activity (Reaction Biology); type: biochemical
T1 construct: purchased Reaction Biology

[8] = biological target: T2, EGFR (d746-750/C797A) (Homo sapiens, UniProt P00533, C797A/DEL746-750); experiment: as above; type: biochemical
T2 construct: purchased Reaction Biology

[9] = biological target: T3, EGFR (d746-750/C797S) (Homo sapiens, UniProt P00533, C797S/DEL746-750); experiment: as above; type: biochemical
T3 construct: purchased Reaction Biology

[10] = biological target: T4, EGFR (d746-750/T790M/C797S) (Homo sapiens, UniProt P00533, C797S/DEL746-750/T790M); experiment: as above; type: biochemical
T4 construct: purchased Reaction Biology

[11] = biological target: T5, EGFR (D761Y) (Homo sapiens, UniProt P00533, D761Y); experiment: as above; type: biochemical
T5 construct: purchased Reaction Biology

[12] = biological target: T6, EGFR (G719C) (Homo sapiens, UniProt P00533, G719C); experiment: as above; type: biochemical
T6 construct: purchased Reaction Biology

[13] = biological target: T7, EGFR (G719D) (Homo sapiens, UniProt P00533, G719D); experiment: as above; type: biochemical
T7 construct: purchased Reaction Biology

[14] = biological target: T8, EGFR (G719S) (Homo sapiens, UniProt P00533, G719S); experiment: as above; type: biochemical
T8 construct: purchased Reaction Biology

[15] = biological target: T9, EGFR (L718Q) (Homo sapiens, UniProt P00533, L718Q); experiment: as above; type: biochemical
T9 construct: purchased Reaction Biology

[16] = biological target: T10, EGFR (L747S) (Homo sapiens, UniProt P00533, L747S); experiment: as above; type: biochemical
T10 construct: purchased Reaction Biology

[17] = biological target: T11, EGFR (L792F) (Homo sapiens, UniProt P00533, L792F); experiment: as above; type: biochemical
T11 construct: purchased Reaction Biology

[18] = biological target: T12, EGFR (L792F/L858R) (Homo sapiens, UniProt P00533, L792F/L858R); experiment: as above; type: biochemical
T12 construct: purchased Reaction Biology

[19] = biological target: T13, EGFR (L861Q) (Homo sapiens, UniProt P00533, L861Q); experiment: as above; type: biochemical
T13 construct: purchased Reaction Biology

[20] = biological target: T14, ERBB2/HER2 (Homo sapiens, UniProt P04626); experiment: as above; type: biochemical
T14 construct: purchased Reaction Biology

[21] = biological target: T15, ERBB4/HER4 (Homo sapiens, UniProt Q15303); experiment: as above; type: biochemical
T15 construct: purchased Reaction Biology

[22] = test system: Ba/F3 cells expressing EGFR L858R/C797S (EGFR LC); experiment: Proliferation inhibitory activity, Ba/F3 cells expressing EGFR L858R/C797S (CellTiter-Glo); type: cell-based; conditions: Mus musculus, BaF3, 72 hours of compound treatment
Protocol: as §1, §2, §3

T3 sequence (P00533 with tags, fused parts or gaps DEL746-750/C797S limits assumed): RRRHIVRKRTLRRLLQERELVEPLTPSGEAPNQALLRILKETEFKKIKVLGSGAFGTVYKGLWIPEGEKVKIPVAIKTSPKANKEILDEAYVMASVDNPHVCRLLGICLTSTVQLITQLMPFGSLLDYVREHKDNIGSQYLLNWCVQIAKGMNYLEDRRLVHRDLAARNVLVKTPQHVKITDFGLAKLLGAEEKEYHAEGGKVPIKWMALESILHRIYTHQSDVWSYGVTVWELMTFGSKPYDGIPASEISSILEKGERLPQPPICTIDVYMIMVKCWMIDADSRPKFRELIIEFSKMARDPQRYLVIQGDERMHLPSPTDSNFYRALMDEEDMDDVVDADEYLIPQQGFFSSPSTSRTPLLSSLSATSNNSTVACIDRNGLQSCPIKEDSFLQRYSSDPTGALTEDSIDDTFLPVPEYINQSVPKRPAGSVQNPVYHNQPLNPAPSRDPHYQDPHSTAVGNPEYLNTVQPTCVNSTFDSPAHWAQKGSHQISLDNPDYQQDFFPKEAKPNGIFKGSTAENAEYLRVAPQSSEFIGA
T12 sequence (P00533 25-1210 L792F/L858R): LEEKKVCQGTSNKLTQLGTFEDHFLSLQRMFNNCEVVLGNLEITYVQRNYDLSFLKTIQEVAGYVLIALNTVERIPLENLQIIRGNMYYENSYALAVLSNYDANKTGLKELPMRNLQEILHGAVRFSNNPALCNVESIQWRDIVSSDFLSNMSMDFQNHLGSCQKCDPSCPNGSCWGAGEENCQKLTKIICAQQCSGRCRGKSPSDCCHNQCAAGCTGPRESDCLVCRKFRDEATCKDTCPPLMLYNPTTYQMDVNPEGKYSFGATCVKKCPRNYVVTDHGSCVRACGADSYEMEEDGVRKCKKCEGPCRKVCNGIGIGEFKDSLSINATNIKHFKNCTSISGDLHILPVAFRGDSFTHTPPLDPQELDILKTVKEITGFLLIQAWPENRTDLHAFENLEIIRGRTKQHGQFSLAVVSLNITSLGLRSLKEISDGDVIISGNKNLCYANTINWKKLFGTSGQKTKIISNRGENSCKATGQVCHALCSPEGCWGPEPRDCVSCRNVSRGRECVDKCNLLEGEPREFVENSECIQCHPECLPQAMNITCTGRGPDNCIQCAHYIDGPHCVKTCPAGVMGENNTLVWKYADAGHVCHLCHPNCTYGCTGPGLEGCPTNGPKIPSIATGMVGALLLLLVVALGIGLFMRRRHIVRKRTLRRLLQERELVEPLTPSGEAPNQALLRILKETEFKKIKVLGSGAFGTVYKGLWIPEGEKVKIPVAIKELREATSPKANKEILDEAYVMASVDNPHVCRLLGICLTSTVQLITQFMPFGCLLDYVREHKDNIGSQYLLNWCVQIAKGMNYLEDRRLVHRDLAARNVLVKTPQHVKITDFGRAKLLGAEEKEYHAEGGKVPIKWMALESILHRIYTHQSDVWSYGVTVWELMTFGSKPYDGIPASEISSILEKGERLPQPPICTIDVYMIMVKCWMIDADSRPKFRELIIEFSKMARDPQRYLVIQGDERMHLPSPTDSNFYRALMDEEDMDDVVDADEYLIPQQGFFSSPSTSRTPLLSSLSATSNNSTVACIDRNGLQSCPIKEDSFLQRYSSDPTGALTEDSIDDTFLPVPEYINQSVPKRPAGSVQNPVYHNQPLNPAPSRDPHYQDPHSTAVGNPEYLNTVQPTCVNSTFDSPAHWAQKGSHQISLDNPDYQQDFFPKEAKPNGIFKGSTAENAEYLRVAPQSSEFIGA
T9 sequence (P00533 25-1210 L718Q): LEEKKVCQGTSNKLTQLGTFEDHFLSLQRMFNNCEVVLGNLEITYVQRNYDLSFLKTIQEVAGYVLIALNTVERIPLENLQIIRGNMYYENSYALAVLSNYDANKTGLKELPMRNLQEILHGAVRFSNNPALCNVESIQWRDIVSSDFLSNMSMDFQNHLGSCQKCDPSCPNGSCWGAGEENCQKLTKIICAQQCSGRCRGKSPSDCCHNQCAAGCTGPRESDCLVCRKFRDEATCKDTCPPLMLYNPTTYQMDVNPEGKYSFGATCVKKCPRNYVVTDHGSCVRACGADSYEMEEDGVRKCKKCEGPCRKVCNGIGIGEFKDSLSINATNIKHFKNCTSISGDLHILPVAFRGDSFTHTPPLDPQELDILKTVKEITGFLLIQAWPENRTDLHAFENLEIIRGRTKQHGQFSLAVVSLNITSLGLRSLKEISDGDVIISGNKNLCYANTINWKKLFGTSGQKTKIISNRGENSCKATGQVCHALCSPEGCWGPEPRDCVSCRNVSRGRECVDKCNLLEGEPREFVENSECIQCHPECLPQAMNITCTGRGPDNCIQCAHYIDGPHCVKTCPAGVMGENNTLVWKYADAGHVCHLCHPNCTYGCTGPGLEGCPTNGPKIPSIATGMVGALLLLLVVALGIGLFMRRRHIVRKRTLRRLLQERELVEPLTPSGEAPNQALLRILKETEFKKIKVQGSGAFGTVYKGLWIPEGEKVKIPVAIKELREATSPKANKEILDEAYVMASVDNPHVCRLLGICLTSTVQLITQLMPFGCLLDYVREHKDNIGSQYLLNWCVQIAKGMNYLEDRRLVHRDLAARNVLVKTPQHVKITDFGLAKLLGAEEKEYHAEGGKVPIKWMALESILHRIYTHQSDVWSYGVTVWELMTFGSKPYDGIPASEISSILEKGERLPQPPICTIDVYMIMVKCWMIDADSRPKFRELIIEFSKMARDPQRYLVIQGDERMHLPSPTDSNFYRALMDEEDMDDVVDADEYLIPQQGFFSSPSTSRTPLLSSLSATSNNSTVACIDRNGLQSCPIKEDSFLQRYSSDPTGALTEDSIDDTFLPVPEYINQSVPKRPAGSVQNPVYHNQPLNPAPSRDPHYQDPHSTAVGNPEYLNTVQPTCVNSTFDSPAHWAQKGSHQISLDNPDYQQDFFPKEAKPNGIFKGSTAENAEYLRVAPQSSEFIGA
T2 sequence (P00533 with tags, fused parts or gaps DEL746-750/C797A limits assumed): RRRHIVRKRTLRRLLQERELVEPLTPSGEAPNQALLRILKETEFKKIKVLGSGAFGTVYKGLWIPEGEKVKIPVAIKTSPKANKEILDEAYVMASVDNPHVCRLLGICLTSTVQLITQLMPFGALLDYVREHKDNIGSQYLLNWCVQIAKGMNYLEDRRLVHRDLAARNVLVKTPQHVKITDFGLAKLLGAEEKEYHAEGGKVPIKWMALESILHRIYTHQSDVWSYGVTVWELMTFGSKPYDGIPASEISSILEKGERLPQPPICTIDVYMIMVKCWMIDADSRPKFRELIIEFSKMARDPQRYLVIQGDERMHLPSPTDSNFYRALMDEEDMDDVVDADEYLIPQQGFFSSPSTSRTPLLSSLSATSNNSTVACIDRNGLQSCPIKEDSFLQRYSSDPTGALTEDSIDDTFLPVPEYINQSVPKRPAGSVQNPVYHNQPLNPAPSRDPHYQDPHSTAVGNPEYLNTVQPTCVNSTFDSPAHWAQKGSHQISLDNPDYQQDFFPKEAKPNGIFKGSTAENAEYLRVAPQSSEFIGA
T11 sequence (P00533 25-1210 L792F): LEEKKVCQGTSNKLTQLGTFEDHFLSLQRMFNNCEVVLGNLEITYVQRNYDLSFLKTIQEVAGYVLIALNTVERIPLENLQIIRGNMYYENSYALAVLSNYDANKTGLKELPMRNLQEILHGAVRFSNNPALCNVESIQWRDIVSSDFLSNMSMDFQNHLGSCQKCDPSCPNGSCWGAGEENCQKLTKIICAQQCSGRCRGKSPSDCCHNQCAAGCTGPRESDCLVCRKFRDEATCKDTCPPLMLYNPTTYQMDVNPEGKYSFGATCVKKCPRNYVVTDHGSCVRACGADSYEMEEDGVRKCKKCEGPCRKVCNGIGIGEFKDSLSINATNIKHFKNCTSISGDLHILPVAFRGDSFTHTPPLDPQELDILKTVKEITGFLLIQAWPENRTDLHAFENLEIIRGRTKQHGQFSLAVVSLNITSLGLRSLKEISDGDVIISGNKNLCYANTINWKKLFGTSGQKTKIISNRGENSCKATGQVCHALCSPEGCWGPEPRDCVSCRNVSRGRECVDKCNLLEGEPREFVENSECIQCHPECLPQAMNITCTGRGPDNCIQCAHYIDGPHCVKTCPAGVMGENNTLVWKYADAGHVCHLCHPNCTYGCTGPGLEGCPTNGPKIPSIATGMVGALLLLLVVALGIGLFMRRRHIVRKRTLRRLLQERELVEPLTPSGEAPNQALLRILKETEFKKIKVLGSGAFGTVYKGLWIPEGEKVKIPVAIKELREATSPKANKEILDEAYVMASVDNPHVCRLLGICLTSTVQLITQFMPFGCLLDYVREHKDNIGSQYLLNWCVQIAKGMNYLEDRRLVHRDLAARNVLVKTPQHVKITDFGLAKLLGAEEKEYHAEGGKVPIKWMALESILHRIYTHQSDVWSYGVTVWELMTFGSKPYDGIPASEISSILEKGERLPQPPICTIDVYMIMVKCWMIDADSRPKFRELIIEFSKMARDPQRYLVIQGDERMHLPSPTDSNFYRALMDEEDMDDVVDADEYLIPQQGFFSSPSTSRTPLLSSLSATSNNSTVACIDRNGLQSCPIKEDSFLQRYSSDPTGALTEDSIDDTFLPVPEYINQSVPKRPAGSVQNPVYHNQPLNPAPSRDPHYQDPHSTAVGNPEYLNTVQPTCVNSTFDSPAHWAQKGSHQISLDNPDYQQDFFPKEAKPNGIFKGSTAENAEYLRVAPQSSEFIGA

Compound: COc1cc(N2CCC(N3CCN(C)CC3)CC2)ccc1Nc1cc(N2OCC[C@@H]2c2ccc(F)cc2F)ncn1 [Example 34, (R)-6-(3-(2,4-difluorophenyl)isoxazolidin-2-yl)-N-(2-methoxy-4-(4-(4-methylpiperazin-1-yl)piperidin-1-yl)phenyl)pyrimidin-4-amine]
GI50 [1]: < 50 nM
GI50 [2]: < 50 nM
GI50 [3]: 50 to 500 nM
GI50 [4]: 50 to 500 nM
GI50 [5]: 50 to 500 nM
GI50 [6]: < 50 nM
IC50 [7]: 8 nM
IC50 [8]: 3.5 nM
IC50 [9]: < 0.5 nM
IC50 [10]: 60.5 nM
IC50 [11]: < 0.5 nM
IC50 [12]: 0.5 nM
IC50 [13]: < 0.5 nM
IC50 [14]: 2.7 nM
IC50 [15]: 49.8 nM
IC50 [16]: < 0.5 nM
IC50 [17]: 8.7 nM
IC50 [18]: 78.1 nM
IC50 [19]: < 0.5 nM
IC50 [20]: 5.3 nM
IC50 [21]: 41.7 nM

Compound: COc1cc(N2CCC(N3CCN(C)CC3)CC2)ccc1Nc1cc(N2OCC[C@@H]2c2ccc(Cl)c(F)c2)ncn1 [Example 129, (R)-6-(3-(4-chloro-3-fluorophenyl)isoxazolidin-2-yl)-N-(2-methoxy-4-(4-(4-methylpiperazin-1-yl)piperidin-1-yl)phenyl)pyrimidin-4-amine]
GI50 [1]: < 50 nM
GI50 [22]: < 50 nM

Compound: COc1cc(N2CCC(N3CCN(C4CC4)CC3)CC2)ccc1Nc1cc(N2OCC[C@@H]2c2cc(F)cc(F)c2)ncn1 [Example 6, (R)—N-(4-(4-(4-cyclopropylpiperazin-1-yl)piperidin-1-yl)-2-methoxyphenyl)-6-(3-(3,5-difluorophenyl)isoxazolidin-2-yl)pyrimidin-4-amine]
GI50 [1]: 50 to 500 nM
GI50 [22]: 50 to 500 nM

Compound: COc1cc(N2CCC(N3CCN(C)CC3)CC2)c(-c2cnn(C)c2)cc1Nc1cc(N2OCC[C@@H]2c2cc(F)cc(F)c2)ncn1 [Example 8, (R)-6-(3-(3,5-difluorophenyl)isoxazolidin-2-yl)-N-(2-methoxy-5-(1-methyl-1H-pyrazol-4-yl)-4-(4-(4-methylpiperazin-1-yl)piperidin-1-yl)phenyl)pyrimidin-4-amine]
GI50 [1]: < 50 nM
GI50 [22]: < 50 nM

Compound: CN(C)C1CCN(C2CCN(c3ccc(Nc4cc(N5OCC[C@@H]5c5ccccc5)ncn4)cc3)CC2)CC1 [Example 84, (R)—N,N-dimethyl-1′-(4-((6-(3-phenylisoxazolidin-2-yl)pyrimidin-4-yl)amino)phenyl)-[1,4′-bipiperidin]-4-amine]
GI50 [1]: < 50 nM
GI50 [22]: < 50 nM

Compound: COc1cc(N2CCOCC2)c(-c2cnn(C)c2)cc1Nc1cc(N2OCC[C@@H]2c2cc(F)cc(F)c2)ncn1 [Example 7, (R)-6-(3-(3,5-difluorophenyl)isoxazolidin-2-yl)-N-(2-methoxy-5-(1-methyl-1H-pyrazol-4-yl)-4-morpholinophenyl)pyrimidin-4-amine]
GI50 [1]: 50 to 500 nM
GI50 [22]: 50 to 500 nM

Compound: COc1cc(Nc2cc(N3OCC[C@@H]3c3ccccc3)ncn2)ccc1N1CCC(N2CCN(C)CC2)CC1 [Example 4, (R)—N-(3-methoxy-4-(4-(4-methylpiperazin-1-yl)piperidin-1-yl)phenyl)-6-(3-phenylisoxazolidin-2-yl)pyrimidin-4-amine]
GI50 [1]: < 50 nM
GI50 [22]: < 50 nM
GI50 [2]: < 50 nM
GI50 [3]: < 50 nM
GI50 [4]: 50 to 500 nM

Second part, the molecule after the results:

GI50 [1]: < 50 nM
GI50 [22]: < 50 nM
Compound: CN1CCN(c2ccc(Nc3cc(N4OCC[C@@H]4c4ccccc4)ncn3)cc2)CC1 [Example 1, (R)—N-(4-(4-methylpiperazin-1-yl)phenyl)-6-(3-phenylisoxazolidin-2-yl)pyrimidin-4-amine]

GI50 [1]: 50 to 500 nM
GI50 [22]: 50 to 500 nM
Compound: CS(=O)(=O)c1cc(Nc2cc(N3OCC[C@@H]3c3cc(F)cc(F)c3)ncn2)cc(N2CCC(N3CCOCC3)CC2)c1 [Example 12, (R)-6-(3-(3,5-difluorophenyl)isoxazolidin-2-yl)-N-(3-(methylsulfonyl)-5-(4-morpholinopiperidin-1-yl)phenyl)pyrimidin-4-amine]

GI50 [1]: < 50 nM
GI50 [22]: < 50 nM
Compound: CN1CCN(c2cc(Nc3cc(N4OCC[C@@H]4c4cc(F)cc(F)c4)ncn3)cc(C(C)(C)C#N)c2)CC1 [Example 15, (R)-2-(3-((6-(3-(3,5-difluorophenyl)isoxazolidin-2-yl)pyrimidin-4-yl)amino)-5-(4-methylpiperazin-1-yl)phenyl)-2-methylpropanenitrile]
